{"source": "patent US5591717A", "about": "“Branched apogenic peptide for inducing apoptosis” (priority 1994, dated 1997)", "key": {"HL60 cell cultures": {"test_system": "HL60 cell cultures", "assay": "Heparin reversal of CSarma VR5-BAP effect in HL60 cells, MTT and INDO-1", "format": "cell-based, human", "experimental": "HL60 cell cultures were treated with 6 μM CSarma VR5-BAP and 0.3 U/ml, or 3.0 U/ml heparin. Control cell cultures received either no polypeptide or 0.3 U/ml or 3.0 U/ml heparin. Cell growth was determined at 1 and 2 days as assessed by MTT cell proliferation/viability assay. The mobilization of intracellular calcium was assessed by INDO-1 staining and anchored cell fluorescent microscopy."}, "[1]": {"test_system": "HL60, K562, 3201 and H9 cells", "experimental": "A commonly used anti-apogenic compound is zinc. HL60, K562, 3201 and H9 cells were exposed to 1, 2, 4, 7.9, 15.7, 31.3, 62.5, 125, 250, 500, and 1000 μM zinc sulfate and 6 μM CSarma VR5-BAP. The cells were cultured for 24 and 8 hours."}, "HL60 cells [2]": {"test_system": "HL60 cells", "assay": "Augmentation by 1,25-dihydroxy vitamin D3 in HL60 cells, microscopy", "format": "cell-based, human", "conditions": "simultaneous exposure", "experimental": "At 1 μM, 1,25-dihydroxy vitamin D3 will drive differentiation of HL60 cells into monocytes; overt differentiation requires 72-96 hours. Accordingly, HL60 cell cultures were simultaneously exposed to a subapoptotic dose of 1 μM CSarma VR5-BAP and 0.5 or 1.0 μM 1, 25-dihydroxy vitamin D3. The cultures were then evaluated by inverted phase microscopy of tissue culture plates and by light microscopic examination of Wright-Giemsa stained cytocentrifuge preparations."}, "HL60 cells [3]": {"test_system": "HL60 cells", "assay": "Sodium butyrate or retinoic acid with sub-apoptotic CSarma VR5-BAP in HL60 cells", "format": "cell-based, human", "conditions": "1 μM agent, 2, 3 and 5 days", "experimental": "At 1 μM sodium butyrate and retinoic acid induce monocytic and granulocytic differentiation in HL60 cells, respectively. Neither the sodium butyrate nor retinoic acid is specifically associated with calcium transport. HL60 cells were simultaneously exposed to such […] dose (1 μM) of CSarma VR5-BAP and to either 1 μM sodium butyrate or 1 μM retinoic acid. Cells were cultured for 5 days and evaluated by inverted phase contrast microscopy and light microscopic examination of Wright-Giemsa-Stained cytrocentrifuge preparation. Samples were taken at 2, 3 and 5 days."}}, "data": [{"molecule": "heparin", "values": [{"measurement": "mobilization of intracellular calcium", "setting": "HL60 cell cultures; INDO-1 staining", "result": "prevents mobilization of intracellular calcium"}, {"measurement": "concentration inhibiting the growth suppression of 6 μM CSarma VR5-BAP", "setting": "HL60 cell cultures; MTT, 1 and 2 days", "result": "greater than or equal to 0.3 U/ml"}]}, {"molecule": "O=S(=O)([O-])[O-].[Zn+2]", "note": "[zinc sulfate]", "values": [{"measurement": "concentration with direct toxicity", "setting": "[1]", "result": "greater than 31.3 μM"}, {"measurement": "reversal of CSarma VR5-BAP induced apoptosis", "setting": "[1]; 1 to 1000 μM zinc sulfate with 6 μM CSarma VR5-BAP", "result": "failed to reverse"}]}, {"molecule": "C=C1/C(=C\\C=C2/CCC[C@]3(C)[C@@H]([C@H](C)CCCC(C)(C)O)CC[C@@H]23)C[C@@H](O)C[C@@H]1O", "note": "[1,25-dihydroxy vitamin D3, 1,25-dihydroxycholecalciferol]", "values": [{"measurement": "increase of sensitivity of HL60 cells to CSarma VR5-BAP", "setting": "HL60 cells [2]", "result": "six-fold"}]}, {"molecule": "CC1=C(/C=C/C(C)=C/C=C/C(C)=C/C(=O)O)C(C)(C)CCC1", "note": "[retinoic acid]", "values": [{"measurement": "apoptosis on simultaneous treatment with 1 μM CSarma VR5-BAP", "setting": "HL60 cells [3]", "result": "did not cause apoptosis"}]}, {"molecule": "CCCC(=O)[O-].[Na+]", "note": "[sodium butyrate]", "values": [{"measurement": "apoptosis on simultaneous treatment with 1 μM CSarma VR5-BAP", "setting": "HL60 cells [3]", "result": "did not cause apoptosis"}]}]}
